According to patent publication US11498896B2 (The Broad Institute, Inc., priority 2014, dated 2022):

Experiments:
human D2R/β-arrestin [1] = target: T1, human D2R/β-arrestin (Homo sapiens (Human), UniProt P14416); test: Gi/cAMP agonist assay (Lance Ultra cAMP, forskolin); assay type: cell-based; settings: CHO-K1 cells expressing human D2R/β-arrestin; agonist mode, 2.5 μM forskolin
Method: Eu-cAMP tracer solution (10 μl, PerkinElmer, 360 μl of Tracer in 17.64 ml kit buffer) and ULight-anti-cAMP solution (10 μl, 120 μL antibody in 17.88 ml kit buffer) was then added to each well.

human D2R/β-arrestin [2] = target: T1, human D2R/β-arrestin; test: β-arrestin agonist assay (PathHunter); assay type: cell-based; settings: CHO-K1 cells expressing human D2R/β-arrestin; agonist mode
Method: The detection reagent (9.6 μL, Buffer:Emerald II:Galactor-Star in a 19:5:1 ratio, i.e., 14.06 mL:3.7 mL:0.74 mL=18.5 mL) was then added to the agonist plates.

human D2R/β-arrestin [3] = target: T1, human D2R/β-arrestin; test: cell-based; settings: β-arrestin Antagonist, CHO-K1 cells expressing human D2R/β-arrestin; antagonist mode, quinpirole 130 nM
human D2R/β-arrestin [4] = target: T1, human D2R/β-arrestin; test: cell-based; settings: cAMP Antagonist, CHO-K1 cells expressing human D2R/β-arrestin; antagonist mode, 2.5 μM forskolin and 2.7 nM quinpirole

T1 sequence (P14416 whole entry): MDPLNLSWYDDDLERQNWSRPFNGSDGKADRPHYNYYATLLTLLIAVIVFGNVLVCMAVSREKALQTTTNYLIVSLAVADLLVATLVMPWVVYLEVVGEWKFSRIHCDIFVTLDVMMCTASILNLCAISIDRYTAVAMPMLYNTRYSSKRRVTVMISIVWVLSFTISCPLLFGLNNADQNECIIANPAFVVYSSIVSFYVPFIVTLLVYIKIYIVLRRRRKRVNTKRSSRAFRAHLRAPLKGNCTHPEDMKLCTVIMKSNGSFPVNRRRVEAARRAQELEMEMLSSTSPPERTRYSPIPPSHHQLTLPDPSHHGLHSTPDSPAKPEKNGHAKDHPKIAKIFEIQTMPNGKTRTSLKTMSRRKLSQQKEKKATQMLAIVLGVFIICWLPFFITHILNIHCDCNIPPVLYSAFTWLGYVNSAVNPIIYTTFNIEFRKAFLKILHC

Compound	EC50 (human D2R/β-arrestin [1]) [µM]	EC50 (human D2R/β-arrestin [2]) [µM]	IC50 (human D2R/β-arrestin [3]) [µM]	IC50 (human D2R/β-arrestin [4]) [µM]
Cc1ccc(OCCN2CCC(C)(Oc3ccc(Cl)cc3)CC2)cc1 [Compound 150, 4-(4-chlorophenoxy)-4-methyl-1-(2-(p-tolyloxy)ethyl)piperidine]	< 0.1	0.1 to 1	> 30	> 30
CC1(O)CCN(CCOc2ccccc2C(F)(F)F)CC1 [Compound 124, 4-Methyl-1-(2-(2-(trifluoromethyl)phenoxy)ethyl)piperidin-4-ol]	> 30	> 30	0.1 to 1	< 0.1
CC1(Oc2ccc(Cl)cc2)CCN(CCOc2ccc(C(F)(F)F)cn2)CC1 [Compound 148, 2-(2-(4-(4-chlorophenoxy)-4-methylpiperidin-1-yl)ethoxy)-5-(trifluoromethyl) pyridine]	10 to 30	> 30	> 30	> 30
CC1(Oc2ccc(Cl)cc2)CCN(CCOc2ccc3cccnc3c2)C1 (centres unmarked) [Compound 24]	< 0.1	< 0.1	> 30	> 30
CC1(Oc2ccc(Cl)cc2)CCN(CC(=O)Nc2ccccc2C(F)(F)F)CC1 [Compound 129, 2-(4-(4-chlorophenoxy)-4-methylpiperidin-1-yl)-N-(2-(trifluoromethyl)phenyl)acetamide]	> 30	> 30	> 30	> 30
CC1(C)OC(c2ccccc2)C2(CCN(CCOc3ccccc3C(F)(F)F)CC2)O1 (centres unmarked) [Compound 119]	> 30	> 30	1 to 10	1 to 10
CC1(Oc2ccc(Cl)cc2)CCN(CCOc2cc(Cl)ccc2C(F)(F)F)CC1 [Compound 165, 1-(2-(5-chloro-2-(trifluoromethyl)phenoxy)ethyl)-4-(4-chlorophenoxy)-4-methylpiperidine]	1 to 10	10 to 30	1 to 10	> 30
CC1(Oc2ccc(Cl)cc2)CCN(CCOc2cc(F)ccc2F)C1 (centres unmarked) [Compound 23, 3-(4-chlorophenoxy)-1-(2-(2,5-difluorophenoxy)ethyl)-3-methyl pyrrolidine]	< 0.1	> 30	0.1 to 1	> 30
CC1(Oc2ccccc2)CCN(CCOc2ccncc2)CC1 [Compound 173, 4-(2-(4-methyl-4-phenoxypiperidin-1-yl)ethoxy)pyridine]	0.1 to 1	1 to 10	> 30	> 30
CC1(Oc2ccc(Cl)cc2)CCN(CCCCOc2ccc3ncsc3c2)C1 (centres unmarked) [Compound 29, 6-(4-(3-(4-chlorophenoxy)-3-methylpyrrolidin-1-yl)butoxy)benzo[d]thiazole]	> 30	> 30	1 to 10	1 to 10
CC1(Oc2ccc(Cl)cc2)CCN(CCOc2cnccc2C(F)(F)F)CC1 [Compound 128, 3-(2-(4-(4-chlorophenoxy)-4-methylpiperidin-1-yl)ethoxy)-4-(trifluoromethyl)pyridine]	1 to 10	> 30	1 to 10	0.1 to 1
CC1(O)CCN(C2CCCN(c3ccccc3C(F)(F)F)C2)CC1 (centres unmarked) [Compound 177, 4-methyl-1′-(2-(trifluoromethyl)phenyl)-[1,3′-bipiperidin]-4-ol]	> 30	> 30	1 to 10	1 to 10
CC1(Oc2ccc(Cl)cc2)CCN(CCOc2ccc(C(F)(F)F)c(O)c2)CC1 [Compound 184, 5-(2-(4-(4-chlorophenoxy)-4-methylpiperidin-1-yl)ethoxy)-2-(trifluoromethyl)phenol]	1 to 10	> 30	10 to 30	> 30
CC1(O)CCN(CCOc2ccccc2C(F)(F)F)C1 (centres unmarked) [Compound 139, 3-Methyl-1-(2-(2-(trifluoromethyl)phenoxy)ethyl)pyrrolidin-3-ol]	> 30	> 30	1 to 10	1 to 10
CC1(Oc2ccc(Cl)cc2)CCN(CCOc2ccc(F)cc2)CC1 [Compound 149, 4-(4-chlorophenoxy)-1-(2-(4-fluorophenoxy)ethyl)-4-methylpiperidine]	< 0.1	0.1 to 1	1 to 10	> 30
CC1(Oc2ccc(Cl)cc2)CCN(CCOC2CCCCC2)C1 (centres unmarked) [Compound 21, 3-(4-chlorophenoxy)-1-(2-(cyclohexyloxy)ethyl)-3-methylpyrrolidine]	> 30	> 30	1 to 10	1 to 10

Results, then the compound that gave them:

EC50 (human D2R/β-arrestin [1]) [µM]	EC50 (human D2R/β-arrestin [2]) [µM]	IC50 (human D2R/β-arrestin [3]) [µM]	IC50 (human D2R/β-arrestin [4]) [µM]	Compound
< 0.1	> 30	1 to 10	> 30	CC1(Oc2ccccc2[N+](=O)[O-])CCN(CCOc2ccccc2)C1 (centres unmarked) [Example 45, 3-methyl-3-(2-nitrophenoxy)-1-(2-phenoxyethyl)pyrrolidine]
> 30	> 30	< 0.1	< 0.1	C#CC1(O)CCN(CCOc2ccccc2C(F)(F)F)CC1 [Compound 302, 4-ethynyl-1-(2-(2-(trifluoromethyl)phenoxy)ethyl)piperidin-4-ol, reference compound]
> 30	> 30	0.1 to 1	0.1 to 1	CC1(Oc2ccccc2)CCN(CCOc2ccc(F)cc2C(F)(F)F)CC1 [Example 75, 1-(2-(4-Fluoro-2-(trifluoromethyl)phenoxy)ethyl)-4-methyl-4-phenoxy piperidine]
0.1 to 1	> 30	10 to 30	> 30	CC1(N)CCN(C[C@H]2COc3ccccc3O2)CC1 [Compound 303, reference compound]
0.1 to 1	> 30	1 to 10	1 to 10	O=[N+]([O-])c1ccc(OC2(c3ccccc3)CCN(CCOc3ccccc3)C2)cc1 (centres unmarked) [Example 94, 3-(4-nitrophenoxy)-1-(2-phenoxyethyl)-3-phenylpyrrolidine]
> 30	> 30	1 to 10	1 to 10	FC(F)(F)c1ccccc1OCCN1CCC2(CC1)CC2c1ccc(Cl)cc1 (single isomer, unassigned) [Compound 216a, 1-(4-chlorophenyl)-6-(2-(2-(trifluoromethyl)phenoxy)ethyl)-6-azaspiro[2.5]octane]
0.1 to 1	> 30	10 to 30	1 to 10	CNC(=O)C1(C)CCN(CC2COc3ccccc3O2)CC1 (single isomer, unassigned) [Compound 202a, 1-((2,3-dihydrobenzo[b][1,4]dioxin-2-yl)methyl)-N,4-dimethylpiperidine-4-carboxamide]
< 0.1	< 0.1	< 0.1	> 30	CC1(Oc2ccccc2)CCN(CCOc2ccccc2Cl)CC1 [Example 89, 1-(2-(2-Chlorophenoxy)ethyl)-4-methyl-4-phenoxypiperidine]
> 30	> 30	0.1 to 1	0.1 to 1	CC1(C(=O)Nc2ccccc2)CCN(CCOc2ccccc2C(F)(F)F)CC1 [Compound 219, 4-methyl-N-phenyl-1-(2-(2-(trifluoromethyl)phenoxy)ethyl)piperidine-4-carboxamide]
< 0.1	> 30	1 to 10	1 to 10	CC1(Oc2ccccc2C(F)(F)F)CCN(CCOc2ccccc2)C1 (centres unmarked) [Example 56, 3-Methyl-1-(2-phenoxyethyl)-3-(2-(trifluoromethyl)phenoxy) pyrrolidine]
> 30	> 30	1 to 10	0.1 to 1	CC1CC(C)(Oc2ccccc2)CC(C)N1CCOc1ccccc1C(F)(F)F (centres unmarked) [Example 83, 2,4,6-Trimethyl-4-phenoxy-1-(2-(2-(trifluoromethyl)phenoxy)ethyl) piperidine]
< 0.1	> 30	0.1 to 1	> 30	CC1(Oc2ccccc2)CCN(CCOc2cccc(C(F)(F)F)c2)CC1 [Example 67, 4-methyl-4-phenoxy-1-(2-(3-(trifluoromethyl)phenoxy)ethyl)piperidine]
< 0.1	> 30	1 to 10	10 to 30	CC1(Oc2cccc(C(F)(F)F)c2)CCN(CCOc2cc(F)ccc2F)C1 (centres unmarked) [Example 66, 1-(2-(2,5-difluorophenoxy)ethyl)-3-methyl-3-(3-(trifluoromethyl)phenoxy)pyrrolidine]
> 30	> 30	10 to 30	1 to 10	CC1(Oc2ccc(Cl)cc2)CCCN(C(C)(C)COc2ccccc2)C1 (centres unmarked) [Example 108, 3-(4-Chlorophenoxy)-3-methyl-1-(2-methyl-1-phenoxypropan-2-yl)piperidine]
1 to 10	1 to 10	1 to 10	> 30	CNCC1(C)CCN(C[C@H]2COc3ccccc3O2)CC1 [Compound 207, (S)-1-(1-((2,3-dihydrobenzo[b][1,4]dioxin-2-yl)methyl)-4-methylpiperidin-4-yl)-N-methylmethanamine]
< 0.1	> 30	0.1 to 1	0.1 to 1	CNC(=O)C1(C)CCN(CC2COc3ccccc3O2)CC1 (centres unmarked) [Compound 202, 1-((2,3-dihydrobenzo[b][1,4]dioxin-2-yl)methyl)-N,4-dimethylpiperidine-4-carboxamide]
